The text below walks through data of patent US10017554B2, “Neuropeptide Y-derived peptides” (University of Copenhagen, priority 2013, dated 2018).

The subject of the test is hippocampal neurons. The test can be described thus: Neurite outgrowth in cultures of rat hippocampal neurons, embryonic day 19, 24 h. It counts as cell-based. Particulars: for Neuritogenic effect 3 μM NPY fragment (% of control): 3 μM peptide; for neurite outgrowth / neuritogenic effect (in words): E19 prenatal rat hippocampal cultures. How it is done: When pharmacological inhibitors or antagonist are applied these are added to cultures 10 min prior to peptide addition. When soluble immunoglobulin modules are used, these are preincubated with peptide solution for 10 min before addition of the mix to the cultures. To knock down NCAM expression, the neurons were transfected with a p-GFP—V-RS vector that encodes short-hairpin RNA targeting NCAM (OriGene, Rockville, Md., USA) using a nucleofector device and a Rat Neuron Nucleofector kit (Amaxa, Gaithersburg, Md., USA). NCAM knock-out mice (C57BI/6JZtm) were a kind gift from prof. Herbert Hildebrandt (Hannover Medical School) and were created as previous described (Cremer et al., 1994). The neurons were fixed, immunostained, and micrographs were recorded and evaluated as previously described (Rønn et al., 2000; Nielsen et al., 2009). Cf. FIGS. 3-9
Neurite outgrowth in cultures of hippocampal neurons from wistar rats, embryonic stage day 19, incubated for 24 hours (37° C., 5% CO2) in supplemented Neurobasal medium with NPY fragments added; effect compared to un-stimulated controls (set to 100%). Values are mean normalized to un-stimulated controls±standard error of mean (SEM). *P<0.05, […], […], Student's t-test versus un-stimulated control.

Setting [1] is: un-stimulated controls set to 100%, mean ± SEM.

With “ALRHYINLITRQRA (listed as Homo sapiens) [NPY23-36 ala36]”, under setting [1], the “Neuritogenic effect 3 μM NPY fragment (% of control)” value is recorded as 91.7 (n = 1) % of control.

Turning to “PAEDMARYYSALRHYINLITRQR (listed as Homo sapiens) [NPY13-35]”, the “Neuritogenic effect 1 μM NPY fragment (% of control)” value (1 μM peptide, un-stimulated controls set to 100%, mean ± SEM) is given as 164.2 ± 7.2 % of control. For the same sequence, the “Neuritogenic effect 3 μM NPY fragment (% of control)” value under setting [1] is on record as 275.8 ± 31.2 % of control.

As to “RQRTILNIYHRLASYYRAMDEAPADEGPNDPKS (listed as Homo sapiens) [NPY3-35 reversed sequence, reference compound]”, the “neurite outgrowth / neuritogenic effect (in words)” value is on record as “did not induce the same neuritogenic effects”. On the same count and under the same terms, in the case of “SALRHYINLITRQR (listed as Homo sapiens) [NPY22-35]” it was “does not”. Consider “YSALRHYINLITRQR (listed as Homo sapiens) [NPY21-35]”, for which the “neurite outgrowth / neuritogenic effect (in words)” value is “induce neurite outgrowth”. Also, the “Neuritogenic effect 3 μM NPY fragment (% of control)” value under setting [1] is given as 266.4 ± 26.6 % of control.
